Assay results: ChEMBL document CHEMBL4304802, “Novel promising 4-anilinoquinazoline-based derivatives as multi-target RTKs inhibitors: Design, molecular docking, synthesis, and antitumor activities in vitro and vivo” (Bioorg Med Chem, 2019)

Legend:
HepG2 = assay: Antiproliferative activity against human HepG2 cells incubated for 72 hrs by MTT assay; format: functional, cell-based; details: HepG2, 72 h
SH-SY5Y = assay: Antiproliferative activity against human SH-SY5Y cells incubated for 72 hrs by MTT assay; format: functional, cell-based
DU-145 = assay: Antiproliferative activity against human DU145 cells incubated for 72 hrs by MTT assay; format: functional, cell-based; details: DU-145, 72 h
MCF7 = assay: Antiproliferative activity against human MCF7 cells incubated for 72 hrs by MTT assay; format: functional, cell-based; details: MCF7, 72 h
A549 = assay: Antiproliferative activity against human A549 cells incubated for 72 hrs by MTT assay; format: functional, cell-based; details: A549, 72 h
[1] = Cytotoxicity against human CCC-HPF1 cells assessed as decrease in cell viability incubated for 72 hrs by MTT assay; format: cell-based; details: CCC-HPF-1, 72 h

Row | Structure (SMILES) | IC50 (HepG2) | IC50 (SH-SY5Y) | IC50 (DU-145) | IC50 (MCF7) | IC50 (A549) | IC50 [1]
1 | c1ccc(COc2ccc(Nc3ncnc4cc5c(cc34)OCCOCCO5)cc2)cc1 | 55.5 µM | 39.3 µM | > 100 µM | > 100 µM | 43.9 µM | –
2 | O=[N+]([O-])c1ccc(COc2ccccc2Nc2ncnc3cc4c(cc23)OCCOCCOCCO4)cc1 | 60.8 µM | 75.5 µM | > 100 µM | > 100 µM | 29.9 µM | –
3 | c1ccc(COc2ccccc2Nc2ncnc3cc4c(cc23)OCCOCCOCCO4)cc1 | 37.3 µM | 98.4 µM | 13.9 µM | 63.3 µM | 6.94 µM | > 100 µM
4 | c1ccc(COc2ccccc2Nc2ncnc3cc4c(cc23)OCCOCCO4)cc1 | > 100 µM | 93.7 µM | > 100 µM | > 100 µM | > 100 µM | –
5 | c1ccc(COc2cccc(Nc3ncnc4cc5c(cc34)OCCOCCOCCO5)c2)cc1 | > 100 µM | 22.8 µM | > 100 µM | > 100 µM | > 100 µM | –
6 | c1ccc(COc2ccc(Nc3ncnc4cc5c(cc34)OCCOCCOCCOCCO5)cc2)cc1 | 11.9 µM | 5.25 µM | 8.8 µM | 12 µM | 29.5 µM | 33.7 µM
7 | c1ccc(COc2ccc(Nc3ncnc4cc5c(cc34)OCCOCCOCCO5)cc2)cc1 | > 100 µM | 23.9 µM | > 100 µM | 8.34 µM | > 100 µM | > 100 µM
8 | O=[N+]([O-])c1ccc(COc2cccc(Nc3ncnc4cc5c(cc34)OCCOCCO5)c2)cc1 | 65.3 µM | 36.6 µM | > 100 µM | 42.4 µM | 15.5 µM | –
9 | FC(F)(F)c1ccc(COc2cccc(Nc3ncnc4cc5c(cc34)OCCOCCO5)c2)cc1 | > 100 µM | 19.3 µM | > 100 µM | > 100 µM | > 100 µM | –
10 | c1ccc(COc2ccccc2Nc2ncnc3cc4c(cc23)OCCOCCOCCOCCO4)cc1 | 29.2 µM | 24 µM | > 100 µM | > 100 µM | 48.5 µM | –
11 | FC(F)(F)c1ccc(COc2ccccc2Nc2ncnc3cc4c(cc23)OCCOCCOCCO4)cc1 | > 100 µM | > 100 µM | > 100 µM | > 100 µM | > 100 µM | –
12 | FC(F)(F)c1ccc(COc2ccc(Nc3ncnc4cc5c(cc34)OCCOCCOCCO5)cc2)cc1 | > 100 µM | > 100 µM | > 100 µM | 28.5 µM | 30.7 µM | –
